Results from US12162858B2, “Quinoline derivatives as inhibitors of AXL/MER RTK and CSF1R” (QURIENT CO., LTD., priority 2018, dated 2024).

What was measured:
CSF1R (M-NFS-60 cells) = experiment: Cell Titer-Glo viability assay using M-NFS-60 cells; assay type: cell-based; conditions: Mus musculus, read-out: Cellular CSF1R activity by M-NFS-60 viability assay (IC50 activity range)
Experimental: M-NFS-60 cells were cultured in RPMI-1640 medium containing 10% FBS, 0.05 mM 2-Mercaptoethanol, penicillin (100 U/ml)/streptomycin ([…]) and supplemented with 62 ng/ml recombinant human M-CSF at 37° C./5% CO2. Aliquots of the cells were seeded into a 96-well plate (2×10^5 cells in 100 μl/well) and then incubated at 37° C./5% CO2 1 h. Dissolve compound in 100% DMSO to make 10 mM stock solutions (Aliquots stored in the Nitrogen Cabinet). Dilute 10 mM compounds solutions for 2-fold in 100% DMSO to get 5 mM solutions (10 μl+10 μl DMSO), and then make a 3-fold serial dilution (10 μl+20 μl DMSO) for 10 doses. For reference compounds: Dilute 10 mM compounds solutions for 20-fold in 100% DMSO to get 0.5 mM solutions (2 μl+38 μl DMSO), and then make a 3-fold serial dilution (10 μl+20 μl DMSO) for 8 doses. The 96-well plate was equilibrated at room temperature for 30 min. 50 μl of CellTiter-Glo® Reagent added to each well and mixed for 2 min on an orbital shaker to induce cell lysis. The 96-well plate was incubated at room temperature for 10 min to stabilize luminescent signal. Luminescent was measured […] by EnVison plate reader. Calculations and Formulas: The following calculations and formulas are used for data analysis using XL Fit software: The curve fitting was made using the Sigmoidal Dose-Response Model (Fit model, 205).

Mer = biological target: T1, Mer (Homo sapiens, UniProt Q12866); experiment: LanthaScreen Eu kinase binding assay for Mer; conditions: read-out: Mer kinase binding activity (Kd)
T1 construct: purchased Life Technologies
T1 sequence (Q12866 21-999): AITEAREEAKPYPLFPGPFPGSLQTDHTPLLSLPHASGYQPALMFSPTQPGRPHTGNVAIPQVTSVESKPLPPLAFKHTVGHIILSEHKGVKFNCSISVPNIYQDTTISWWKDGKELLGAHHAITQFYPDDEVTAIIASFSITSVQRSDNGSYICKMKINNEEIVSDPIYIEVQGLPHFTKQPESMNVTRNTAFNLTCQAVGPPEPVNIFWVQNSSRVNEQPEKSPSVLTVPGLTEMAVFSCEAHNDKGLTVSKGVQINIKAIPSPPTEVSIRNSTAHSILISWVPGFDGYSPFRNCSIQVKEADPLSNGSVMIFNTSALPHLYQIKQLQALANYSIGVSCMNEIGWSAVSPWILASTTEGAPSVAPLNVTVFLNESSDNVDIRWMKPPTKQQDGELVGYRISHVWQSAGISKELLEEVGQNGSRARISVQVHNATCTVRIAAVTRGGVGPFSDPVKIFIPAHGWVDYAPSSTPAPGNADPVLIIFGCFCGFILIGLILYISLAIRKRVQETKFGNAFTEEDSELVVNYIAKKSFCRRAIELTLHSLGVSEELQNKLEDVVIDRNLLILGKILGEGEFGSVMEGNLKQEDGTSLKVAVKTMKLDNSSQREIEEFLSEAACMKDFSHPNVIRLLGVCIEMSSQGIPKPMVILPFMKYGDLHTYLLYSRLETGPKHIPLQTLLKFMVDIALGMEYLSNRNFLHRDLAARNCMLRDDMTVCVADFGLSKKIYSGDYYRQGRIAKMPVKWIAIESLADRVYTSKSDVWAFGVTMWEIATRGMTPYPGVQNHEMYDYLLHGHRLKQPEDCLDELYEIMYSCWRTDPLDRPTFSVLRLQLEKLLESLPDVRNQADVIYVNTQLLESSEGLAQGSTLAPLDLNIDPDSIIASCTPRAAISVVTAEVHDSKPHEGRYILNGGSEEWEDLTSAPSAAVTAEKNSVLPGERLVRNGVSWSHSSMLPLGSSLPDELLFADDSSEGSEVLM
Experimental: LanthaScreen® Eu Kinase Binding assays were conducted at Life Technologies using the manufacturer's specifications for each kinase indicated.
Briefly, the principle behind this assay is based upon the binding and displacement of an Alexa Fluor 647-labeled tracer to the kinase of interest. Binding of the tracer to the kinase is detected using an EU-labeled anti-tag antibody. Simultaneous binding of both the tracer and antibody to the kinase gives rise to a FRET-signal. Binding of an inhibitor to the kinase competes for binding with the tracer, resulting in a loss of FRET-signal.
A given compound was diluted in DMSO to make a stock compound solution. The stock compound solution was serially diluted over eight steps in DMSO. Each diluted compound solution in DMSO was diluted in kinase buffer. Afterwards four kinds of working solution were prepared. First, Tracer-Working solution consists of Tracer 236 and Kinase Buffer. Second, Axl, Mer, Tyro3 or Met/anti-GST-AB-Working solution contained one of the kinases Axl, and Mer or anti-GST-AB (=anti glutathione-S-transferase antibody) in Kinase Buffer. Third, anti-GST-AB-Working solution was made with anti-GST-AB and Kinase Buffer. Last, in the DMSO-Working solution DMSO was added to Kinase Buffer to a final concentration to 3%. Each of the four kinds of working solutions were separately added to the assay plate and then incubated for 1 h at room temperature. After incubation, the assay plate was measured with respect to the FRET-Signal with the EnVision (Perkin Elmer) using the program LanthaHTRF-Assay. Data evaluation was done in the Quattro Workflow software. Kd (the equilibrium dissociation constant) values were calculated relative to vehicle (DMSO) control wells.

Row | Structure (SMILES) | IC50 (CSF1R (M-NFS-60 cells)) | Kd (Mer)
1 | CNCCn1cc(OCC(F)(F)F)c(C(=O)Nc2ccc(Oc3ccnc4cc(OC)c(OC)cc34)cc2)n1 [Compound 119] | 1000 to 10000 nM | 100 to 500 nM
2 | COc1cc2nccc(Oc3ccc(NC(=O)c4nn(CCOC5CC5)cc4OCC(F)(F)F)nn3)c2cc1OC [Compound 120] | 1000 to 10000 nM | < 100 nM
3 | COc1cc2nccc(Oc3ccc(NC(=O)c4nn(C5CCCC5)cc4OCC(F)(F)F)nn3)c2cc1OC [Compound 121] | < 1000 nM | < 100 nM
4 | COc1cc2nccc(Oc3ccc(NC(=O)c4nn(C5CCNC5)cc4OCC(F)(F)F)nn3)c2cc1OC (centres unmarked) [Compound 122] | 1000 to 10000 nM | 100 to 500 nM
5 | COc1cc2nccc(Oc3ccc(NC(=O)c4nn(CC5COC5)cc4OCC(F)(F)F)nn3)c2cc1OC [Compound 123] | 1000 to 10000 nM | < 100 nM
6 | COc1cc2nccc(Oc3ccc(NC(=O)c4nn(CC(C)C)cc4OCC(F)(F)F)nn3)c2cc1OC [Compound 124] | 1000 to 10000 nM | < 100 nM
7 | COc1cc2nccc(Oc3ccc(NC(=O)c4nn(CCN)cc4OCC(F)(F)F)nn3)c2cc1OC [Compound 125] | ≥ 10000 nM | ≥ 500 nM
8 | COCCn1cc(OCC(F)(F)F)c(C(=O)Nc2ccc(Oc3ccnc4cc(OC)c(OC)cc34)nn2)n1 [Compound 126] | 1000 to 10000 nM | < 100 nM
9 | CNCCn1cc(OCC(F)(F)F)c(C(=O)Nc2ccc(Oc3ccnc4cc(OC)c(OC)cc34)nn2)n1 [Compound 127] | ≥ 10000 nM | ≥ 500 nM
10 | COc1cc2nccc(Oc3ccc(NC(=O)c4nn(C5CCOC5)cc4OCC(F)(F)F)nn3)c2cc1OC (centres unmarked) [Compound 128] | 1000 to 10000 nM | < 100 nM
11 | COc1cc2nccc(Oc3ccc(NC(=O)c4nn(CCO)cc4OCC(F)(F)F)cn3)c2cc1OC [Compound 129] | ≥ 10000 nM | 100 to 500 nM
12 | COc1cc2nccc(Oc3ccc(NC(=O)c4nn(CCOC5CC5)cc4OCC(F)(F)F)cn3)c2cc1OC [Compound 130] | 1000 to 10000 nM | < 100 nM
13 | COc1cc2nccc(Oc3ccc(NC(=O)c4nn(C5CCCC5)cc4OCC(F)(F)F)cn3)c2cc1OC [Compound 131] | 1000 to 10000 nM | < 100 nM
14 | COc1cc2nccc(Oc3ccc(NC(=O)c4nn(C5CCNC5)cc4OCC(F)(F)F)cn3)c2cc1OC (centres unmarked) [Compound 132] | ≥ 10000 nM | ≥ 500 nM
15 | COc1cc2nccc(Oc3ccc(NC(=O)c4nn(C5CCN(C)C5)cc4OCC(F)(F)F)cn3)c2cc1OC (centres unmarked) [Compound 133] | 1000 to 10000 nM | 100 to 500 nM
16 | COc1cc2nccc(Oc3ccc(NC(=O)c4nn(CC5COC5)cc4OCC(F)(F)F)cn3)c2cc1OC [Compound 134] | ≥ 10000 nM | < 100 nM
17 | COc1cc2nccc(Oc3ccc(NC(=O)c4nn(CCN)cc4OCC(F)(F)F)cn3)c2cc1OC [Compound 135] | ≥ 10000 nM | ≥ 500 nM

Row | Structure (SMILES) | IC50 (CSF1R (M-NFS-60 cells)) | Kd (Mer)
18 | COc1cc2nccc(Oc3ccc(NC(=O)c4nn(CC(C)O)cc4OCC(F)(F)F)cn3)c2cc1OC (centres unmarked) [Compound 136] | 1000 to 10000 nM | < 100 nM
19 | CNCCn1cc(OCC(F)(F)F)c(C(=O)Nc2ccc(Oc3ccnc4cc(OC)c(OC)cc34)nc2)n1 [Compound 137] | 1000 to 10000 nM | ≥ 500 nM
20 | COc1cc2nccc(Oc3ccc(NC(=O)c4nn(C5CCOC5)cc4OCC(F)(F)F)cn3)c2cc1OC (centres unmarked) [Compound 138] | 1000 to 10000 nM | < 100 nM
21 | CCCn1cc(OCC(F)(F)F)c(C(=O)Nc2ccc(Oc3ccnc4cc(OC)c(OC)cc34)nc2)n1 [Compound 139] | 1000 to 10000 nM | < 100 nM
22 | CCCn1cc(OCCNC)c(C(=O)Nc2ccc(Oc3ccnc4cc(OC)c(OC)cc34)cn2)n1 [Compound 140] | 1000 to 10000 nM | 100 to 500 nM
23 | CNCCOc1cn(C2CC2)nc1C(=O)Nc1ccc(Oc2ccnc3cc(OC)c(OC)cc23)cn1 [Compound 141] | ≥ 10000 nM | ≥ 500 nM
24 | COc1cc2nccc(Oc3ccc(NC(=O)c4nn(C5CC5)cc4NCCC(F)(F)F)nc3)c2cc1OC [Compound 142] | 1000 to 10000 nM | < 100 nM
25 | COc1cc2nccc(Oc3ccc(NC(=O)c4nn(C5CC5)cc4OCC4COC4)nc3)c2cc1OC [Compound 143] | 1000 to 10000 nM | < 100 nM
26 | COc1cc2nccc(Oc3ccc(NC(=O)c4nn(C5CC5)cc4OCC4CNC4)nc3)c2cc1OC [Compound 144] | ≥ 10000 nM | 100 to 500 nM
27 | COc1cc2nccc(Oc3ccc(NC(=O)c4nn(C5CC5)cc4NCC(F)(F)F)nc3)c2cc1OC [Compound 145] | < 1000 nM | < 100 nM
28 | COc1cc2nccc(Oc3ccc(NC(=O)c4nn(C5CC5)cc4NCCC(F)(F)F)nn3)c2cc1OC [Compound 146] | 1000 to 10000 nM | < 100 nM
29 | COc1cc2nccc(Oc3ccc(NC(=O)c4nn(C5CC5)cc4OC(C)C)nn3)c2cc1OC [Compound 147] | 1000 to 10000 nM | < 100 nM
30 | COc1cc2nccc(Oc3ccc(NC(=O)c4nn(C5CC5)cc4NCC(F)(F)F)nn3)c2cc1OC [Compound 148] | 1000 to 10000 nM | < 100 nM
31 | COc1cc2nccc(Oc3ccc(NC(=O)c4nn(C5CC5)cc4OCC4CCC4)nn3)c2cc1OC [Compound 149] | 1000 to 10000 nM | < 100 nM
32 | COCCOc1cn(CC(C)O)nc1C(=O)Nc1ccc(Oc2ccnc3cc(OC)c(OC)cc23)cn1 (centres unmarked) [Compound 150] | 1000 to 10000 nM | < 100 nM
33 | COc1cc2nccc(Oc3ccc(NC(=O)c4nn(CC(C)O)cc4OC(C)C)nc3)c2cc1OC (centres unmarked) [Compound 151] | < 1000 nM | < 100 nM
34 | COc1cc2nccc(Oc3ccc(NC(=O)c4nn(CC(C)O)cc4OCCF)nc3)c2cc1OC (centres unmarked) [Compound 152] | < 1000 nM | < 100 nM
